For one data set, the system named is Thyroid Hormone. The experiment in a line: LeadProfilingScreen radioligand binding. More on the design: species or system rat.
The target of a further data set is Sigma σ1 (Homo sapiens, UniProt Q99720). The experiment in a line: LeadProfilingScreen radioligand binding.
The target of data set [1] is Transporter, Dopamine (DAT) (Homo sapiens, UniProt Q01959). In words: LeadProfilingScreen radioligand binding.
The target in a further data set is Adrenergic α1A (Homo sapiens, UniProt P35348). The experiment in a line: LeadProfilingScreen radioligand binding.
The test system of data set [2] is Purinergic P2Y, Non-Selective. In words: LeadProfilingScreen radioligand binding. More on the design: species or system rat.
A further data set addresses Estrogen Erα (Homo sapiens, UniProt P03372). The experiment in a line: LeadProfilingScreen radioligand binding.
For a further data set, the target named is Calcium Channel N-Type (Rattus norvegicus, UniProt Q02294). The experiment in a line: LeadProfilingScreen radioligand binding.
Data set [3] has as its system human sperm hyperactivated motility. In words: Human sperm motility by CASA. The class given is cell-based. The conditions noted are these: for inhibition of human sperm hyperactivated motility, incubation: 10 μM during 2 h in capacitation media; for inhibition of human sperm hyperactivated motility, acute / inhibition at 10 µM: 10 μM for 1 min after 2 h capacitation; for effect on progressive motility of human sperm / effect on total motility of human sperm: 10 μM, acute; for inhibition at 10 µM: Homo sapiens, Sperm, read-out: inhibition of human sperm hyperactivated motility, acute. On the procedure:
Human sperm samples were obtained by masturbation from deidentified patients after 3 to 5 days of abstinence. The Washington University Fertility and Reproductive Medicine Center confirmed that they met normal semen parameters according to the World Health Organization (≥15 million sperm per mL, ≥40% total motility, ≥32% progressive motility). Samples were allowed to liquefy for 1 h at room temperature. Sperm were purified by the swim-up method as previously described. , Briefly, within 2 h of production, sperm were allowed to swim up in noncommercial human tubular fluid medium (HTF; 98 mM NaCl, 4.7 mM KCl, 0.4 mM KH2PO4, 2 mM CaCl2, 0.2 mM MgSO4, 20 mM HEPES, 3 mM glucose, 21 mM lactic acid, 0.3 mM sodium pyruvate, pH adjusted to 7.4 with NaOH, 285 mmol/kg osmolarity measured with a VAPRO Vapor Pressure Osmometer 5600, ELITechGroup, Belgium) for 1 h at 37 °C without CO2.
Human sperm collected by swim-up were incubated in capacitating media (HTF + 5 mg/mL of BSA + 25 mM NaHCO3 for 2 h). After this incubation hyperactivated motility was measured by computer-assisted sperm analysis (CASA) as previously described. Briefly, 3 μL of sperm suspension was loaded in a 20-μm Leja standard count four-chamber slide. Motility was measured with a HTR-CEROS II v.1.7 (Hamilton-Thorne Research). Sperm were classified as hyperactivated if they met the following criteria: curvilinear velocity (VCL) > 150 μm/s, lateral head displacement (ALH) > 7.0 μm, and linearity coefficient (LIN) < 50%. For acute inhibition experiments, 10 μM of our compound of interest was added for 1 min prior to recording motility. For inhibitor incubation experiments, the compound of interest or DMSO was added during the 2 h incubation in capacitating media.

In a further data set the target is hERG potassium channel (Homo sapiens, UniProt Q12809). In words: LeadProfilingScreen radioligand binding. The conditions noted are these: probe [3H]Dofetilide.
Sequence of hERG potassium channel (Q12809 whole entry): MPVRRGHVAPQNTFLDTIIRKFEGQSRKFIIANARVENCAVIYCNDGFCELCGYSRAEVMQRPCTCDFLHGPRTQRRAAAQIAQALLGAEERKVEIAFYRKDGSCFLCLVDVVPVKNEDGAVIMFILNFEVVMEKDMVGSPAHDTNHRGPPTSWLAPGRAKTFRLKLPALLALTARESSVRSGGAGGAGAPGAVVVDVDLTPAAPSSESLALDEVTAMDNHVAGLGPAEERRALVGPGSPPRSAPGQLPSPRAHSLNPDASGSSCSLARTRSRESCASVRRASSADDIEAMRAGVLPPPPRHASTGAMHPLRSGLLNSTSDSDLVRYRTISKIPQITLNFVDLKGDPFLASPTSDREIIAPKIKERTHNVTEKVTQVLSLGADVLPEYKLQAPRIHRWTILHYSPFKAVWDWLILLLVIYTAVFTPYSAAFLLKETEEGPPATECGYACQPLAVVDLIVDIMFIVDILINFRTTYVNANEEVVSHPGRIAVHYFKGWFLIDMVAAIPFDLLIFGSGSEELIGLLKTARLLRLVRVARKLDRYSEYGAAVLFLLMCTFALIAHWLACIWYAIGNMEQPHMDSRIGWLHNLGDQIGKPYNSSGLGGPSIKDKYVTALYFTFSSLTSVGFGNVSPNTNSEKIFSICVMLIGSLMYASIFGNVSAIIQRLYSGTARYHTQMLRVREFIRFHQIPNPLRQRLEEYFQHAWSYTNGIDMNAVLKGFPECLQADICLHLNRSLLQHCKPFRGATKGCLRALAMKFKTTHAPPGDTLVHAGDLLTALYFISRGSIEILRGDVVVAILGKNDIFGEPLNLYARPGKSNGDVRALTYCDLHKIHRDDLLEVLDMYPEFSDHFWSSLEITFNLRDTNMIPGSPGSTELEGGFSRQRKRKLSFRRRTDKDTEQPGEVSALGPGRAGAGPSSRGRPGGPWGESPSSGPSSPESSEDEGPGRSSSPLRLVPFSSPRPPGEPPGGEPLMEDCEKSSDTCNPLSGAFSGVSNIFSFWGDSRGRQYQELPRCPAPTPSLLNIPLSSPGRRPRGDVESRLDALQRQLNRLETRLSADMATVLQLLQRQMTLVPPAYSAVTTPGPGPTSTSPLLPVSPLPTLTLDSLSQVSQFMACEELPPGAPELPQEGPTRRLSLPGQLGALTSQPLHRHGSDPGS
Another data set has as its target GABAB1A (Homo sapiens, UniProt Q9UBS5). The experiment in a line: LeadProfilingScreen radioligand binding.
Data set [4] is described as follows: Multispecies hepatocyte MetID. Format: in vitro ADME, human. The conditions noted are these: 4 h incubation with hepatocytes, 10 μM. On the procedure:
Metabolites were identified after preincubating each compound at a 10 μM final concentration with 2.5 × 10^5 hepatocytes from human, dog, cynomolgus monkey, and rat in 200 μL of Optiincubate buffer (BioIVT, Westbury, NY). […] After centrifugation, 60 μL of the supernatant was transferred to 60 μL of water for LC-MS analysis. Samples were analyzed using a Thermo Scientific Vanquish UHPLC consisting of a VH-P10-A pump, a VH-A10-A sampler module, a VH-C10-A column compartment, and the VF-D11-A UV detector coupled to an Orbitrap Fusion Lumos instrument with UVPD. A binary solvent system consisting of (A) water with 0.1% formic acid and (B) acetonitrile with 0.1% formic acid was used with an Accucore Vanquish C18+, 2.1 mm × 100 mm, 1.5 μm, UHPLC column maintained at 40 °C. The data generated by data-dependent acquisition via normal acquisition and AcquireX were processed manually with Thermo Scientific FreeStyle and assisted by Compound Discoverer 3.3.1.111 to aid in the structural assignments.

In data set [5] the target is Serotonin (5-Hydroxytryptamine) 5-HT1A (Homo sapiens, UniProt P08908). In words: LeadProfilingScreen radioligand binding.
Sequence of Serotonin (5-Hydroxytryptamine) 5-HT1A (P08908 whole entry): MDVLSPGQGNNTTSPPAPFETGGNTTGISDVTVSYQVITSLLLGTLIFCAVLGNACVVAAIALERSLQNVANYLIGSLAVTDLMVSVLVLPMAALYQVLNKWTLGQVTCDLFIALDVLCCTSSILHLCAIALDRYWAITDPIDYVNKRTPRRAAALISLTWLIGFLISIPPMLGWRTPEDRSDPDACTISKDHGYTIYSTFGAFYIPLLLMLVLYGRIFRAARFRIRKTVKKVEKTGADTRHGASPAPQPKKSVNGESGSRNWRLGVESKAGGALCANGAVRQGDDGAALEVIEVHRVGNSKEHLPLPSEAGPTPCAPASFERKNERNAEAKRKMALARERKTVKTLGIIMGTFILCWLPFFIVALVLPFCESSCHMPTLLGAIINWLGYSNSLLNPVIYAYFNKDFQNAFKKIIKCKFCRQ
The target of another data set is Histamine H3 (Homo sapiens, UniProt Q9Y5N1). The experiment in a line: LeadProfilingScreen radioligand binding.
Sequence of Histamine H3 (Q9Y5N1 whole entry): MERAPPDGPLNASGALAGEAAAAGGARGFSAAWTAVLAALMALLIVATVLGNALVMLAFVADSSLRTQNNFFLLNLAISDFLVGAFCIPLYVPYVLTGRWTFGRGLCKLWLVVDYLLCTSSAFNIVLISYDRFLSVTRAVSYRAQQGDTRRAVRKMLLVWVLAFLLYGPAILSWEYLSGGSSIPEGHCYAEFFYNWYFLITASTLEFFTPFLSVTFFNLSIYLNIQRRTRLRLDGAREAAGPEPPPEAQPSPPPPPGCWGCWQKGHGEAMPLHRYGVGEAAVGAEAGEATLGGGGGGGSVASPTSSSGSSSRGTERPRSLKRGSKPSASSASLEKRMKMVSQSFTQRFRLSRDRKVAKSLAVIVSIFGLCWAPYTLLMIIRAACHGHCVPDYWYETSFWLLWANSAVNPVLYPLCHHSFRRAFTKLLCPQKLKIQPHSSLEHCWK
The next data set addresses Interleukin IL-1 R1 (Homo sapiens, UniProt P14778). In words: LeadProfilingScreen radioligand binding.
The subject of a further data set is Glutamate, Kainate. In words: LeadProfilingScreen radioligand binding. More on the design: species or system rat.
The next data set addresses Opiate μ (OP3, MOP) (Homo sapiens, UniProt P35372). The experiment in a line: LeadProfilingScreen radioligand binding.
The next data set has as its target Adrenergic β2 (Homo sapiens, UniProt P07550). In words: LeadProfilingScreen radioligand binding.
For the next data set, the system named is Glutamate, NMDA, Agonism. In words: LeadProfilingScreen radioligand binding. More on the design: species or system rat.
The target of data set [6] is Nicotinic Acetylcholine α1, Bungarotoxin (Homo sapiens, UniProt P02708+P07510+Q07001). In words: biochemical. Format: binding. The conditions noted are these: read-out: % inhibition at 10 μM.

The structures appear in SMILES notation. “And” between values parts separate entries of the source, which are not always exact repeats. Identical values can stand only once.

Sequence of Opiate μ (OP3, MOP) (P35372 whole entry): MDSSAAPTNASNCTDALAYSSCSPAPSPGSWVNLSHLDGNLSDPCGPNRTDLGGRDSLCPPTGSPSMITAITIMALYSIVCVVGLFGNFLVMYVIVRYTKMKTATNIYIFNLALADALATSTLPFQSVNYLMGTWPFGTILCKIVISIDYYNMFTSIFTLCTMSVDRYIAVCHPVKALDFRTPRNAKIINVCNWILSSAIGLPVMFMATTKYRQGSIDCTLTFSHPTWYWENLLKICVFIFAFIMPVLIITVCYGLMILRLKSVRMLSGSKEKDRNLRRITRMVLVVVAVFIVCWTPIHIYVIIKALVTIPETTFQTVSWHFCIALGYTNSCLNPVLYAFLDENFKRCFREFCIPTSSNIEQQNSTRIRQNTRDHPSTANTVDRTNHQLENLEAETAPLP
Sequence of GABAB1A (Q9UBS5 15-961 limits assumed): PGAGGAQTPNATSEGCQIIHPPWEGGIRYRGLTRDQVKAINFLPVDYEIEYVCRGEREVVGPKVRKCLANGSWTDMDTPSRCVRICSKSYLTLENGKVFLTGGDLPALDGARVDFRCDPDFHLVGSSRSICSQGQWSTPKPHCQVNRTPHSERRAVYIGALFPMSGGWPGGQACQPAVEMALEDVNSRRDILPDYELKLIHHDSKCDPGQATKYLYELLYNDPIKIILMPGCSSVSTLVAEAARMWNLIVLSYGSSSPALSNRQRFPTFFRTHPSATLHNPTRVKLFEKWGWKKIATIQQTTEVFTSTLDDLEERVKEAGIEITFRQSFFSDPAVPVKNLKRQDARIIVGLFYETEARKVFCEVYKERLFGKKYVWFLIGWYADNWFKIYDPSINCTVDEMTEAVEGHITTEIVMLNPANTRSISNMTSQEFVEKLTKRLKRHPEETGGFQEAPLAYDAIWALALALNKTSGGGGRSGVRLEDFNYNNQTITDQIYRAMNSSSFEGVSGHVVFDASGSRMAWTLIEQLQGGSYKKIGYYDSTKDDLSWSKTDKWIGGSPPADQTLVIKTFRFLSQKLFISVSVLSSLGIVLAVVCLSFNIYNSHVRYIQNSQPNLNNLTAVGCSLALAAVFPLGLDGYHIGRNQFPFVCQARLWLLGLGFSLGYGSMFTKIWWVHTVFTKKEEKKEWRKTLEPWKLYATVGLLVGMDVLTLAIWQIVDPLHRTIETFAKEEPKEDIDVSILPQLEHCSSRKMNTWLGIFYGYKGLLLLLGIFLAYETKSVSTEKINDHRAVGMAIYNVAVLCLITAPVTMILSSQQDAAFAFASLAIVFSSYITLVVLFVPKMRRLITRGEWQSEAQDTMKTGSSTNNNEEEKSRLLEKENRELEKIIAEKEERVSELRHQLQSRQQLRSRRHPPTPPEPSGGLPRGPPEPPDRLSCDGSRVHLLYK
Sequence of GABAB1A (O75899 42-941 partner): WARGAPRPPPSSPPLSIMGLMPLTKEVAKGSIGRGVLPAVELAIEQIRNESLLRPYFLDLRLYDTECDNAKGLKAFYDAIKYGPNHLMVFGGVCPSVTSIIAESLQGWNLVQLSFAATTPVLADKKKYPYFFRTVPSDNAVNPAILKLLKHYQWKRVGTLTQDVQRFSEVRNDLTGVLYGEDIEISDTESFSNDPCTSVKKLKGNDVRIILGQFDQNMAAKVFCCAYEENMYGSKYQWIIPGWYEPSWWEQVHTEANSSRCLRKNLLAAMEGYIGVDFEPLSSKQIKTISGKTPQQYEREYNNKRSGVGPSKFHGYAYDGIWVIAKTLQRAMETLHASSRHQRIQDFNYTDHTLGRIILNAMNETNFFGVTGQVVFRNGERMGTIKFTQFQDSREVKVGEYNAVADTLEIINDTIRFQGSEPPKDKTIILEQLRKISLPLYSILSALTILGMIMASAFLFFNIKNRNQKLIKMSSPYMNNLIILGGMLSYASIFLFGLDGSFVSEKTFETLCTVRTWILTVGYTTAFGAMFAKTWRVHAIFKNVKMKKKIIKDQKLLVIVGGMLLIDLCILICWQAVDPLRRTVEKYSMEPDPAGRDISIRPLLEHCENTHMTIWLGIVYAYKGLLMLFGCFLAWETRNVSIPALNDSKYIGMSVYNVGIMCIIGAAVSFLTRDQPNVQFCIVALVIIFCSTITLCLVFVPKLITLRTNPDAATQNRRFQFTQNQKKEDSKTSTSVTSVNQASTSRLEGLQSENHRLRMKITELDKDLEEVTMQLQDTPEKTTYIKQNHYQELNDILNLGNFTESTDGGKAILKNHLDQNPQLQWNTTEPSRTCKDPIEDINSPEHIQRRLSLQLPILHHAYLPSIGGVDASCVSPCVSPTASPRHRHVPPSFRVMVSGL
Sequence of Interleukin IL-1 R1 (P14778 18-569): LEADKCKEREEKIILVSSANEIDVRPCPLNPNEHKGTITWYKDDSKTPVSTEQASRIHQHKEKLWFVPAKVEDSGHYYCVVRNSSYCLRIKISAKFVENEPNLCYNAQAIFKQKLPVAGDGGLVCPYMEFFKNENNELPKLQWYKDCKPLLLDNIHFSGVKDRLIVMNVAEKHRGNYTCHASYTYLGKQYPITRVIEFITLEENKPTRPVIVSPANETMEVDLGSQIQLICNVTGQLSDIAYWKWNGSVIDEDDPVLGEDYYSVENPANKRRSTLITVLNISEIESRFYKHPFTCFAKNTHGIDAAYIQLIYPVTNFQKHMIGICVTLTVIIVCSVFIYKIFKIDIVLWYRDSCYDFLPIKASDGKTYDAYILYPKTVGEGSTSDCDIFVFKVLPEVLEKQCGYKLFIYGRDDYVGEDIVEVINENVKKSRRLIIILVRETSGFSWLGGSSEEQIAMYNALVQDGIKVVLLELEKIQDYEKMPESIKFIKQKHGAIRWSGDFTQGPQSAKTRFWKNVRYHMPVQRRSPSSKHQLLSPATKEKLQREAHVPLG
Sequence of Sigma σ1 (Q99720 whole entry): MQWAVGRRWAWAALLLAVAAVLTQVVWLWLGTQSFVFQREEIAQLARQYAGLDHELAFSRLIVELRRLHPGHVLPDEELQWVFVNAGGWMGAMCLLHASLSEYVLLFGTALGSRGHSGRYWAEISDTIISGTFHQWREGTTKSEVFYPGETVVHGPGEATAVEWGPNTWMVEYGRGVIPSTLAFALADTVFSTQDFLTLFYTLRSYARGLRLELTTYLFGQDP

`O=C(c1ccc(OCc2ccc(OC(F)(F)F)cc2)cc1)N1CCN(c2ccc(C(F)(F)F)cn2)CC1` [VU6032735]: the % inhibition (in general, the relative decrease from the control value, in per cent) at 10 μM in the data set with Thyroid Hormone was 4%; in data set [2] it was 24%; in the data set on Glutamate, Kainate it was -4%; with Glutamate, NMDA, Agonism, -8%. Besides, the inhibition (commonly the change of the read-out against control, counted positive when it falls) at 10 µM on Sigma σ1 is -3%; in data set [1] it was 26%; at Adrenergic α1A it was -1%; at Estrogen Erα, 11%; at Calcium Channel N-Type, 2%; in data set [3] it was 76%. Moreover, the inhibition at 10 µM on hERG potassium channel is 9%; at GABAB1A, 31%; in data set [5] it was -1%; at Histamine H3, -16%; on Interleukin IL-1 R1, -7%; on Opiate μ (OP3, MOP), 11%. Also, the inhibition at 10 µM at Adrenergic β2 was found to be 5%; in data set [6], 2%. Also, in data set [3], the “inhibition of human sperm hyperactivated motility, incubation” value was determined as 50%. The “inhibition of human sperm hyperactivated motility, acute” value in data set [3] was greater than 70%. Also, the “effect on progressive motility of human sperm” value in [3] is recorded as “without changing”. Moreover, the “effect on total motility of human sperm” value in data set [3] is recorded as “without changing”. In addition, in data set [4], the “% of Parent Related Material, Human” value was greater than 98%.

Turning to `Cc1cc(Cl)cc2sc(O[C@H]3CCN(C(=O)CCCS(=O)(=O)c4cccc(Br)c4)C[C@H]3F)nc12` [VU6047606], the “% inhibition at 10 μM” value is recorded as 12% with Thyroid Hormone; 7% in data set [2]; -6% in the data set on Glutamate, Kainate; -18% with Glutamate, NMDA, Agonism. Also, the inhibition at 10 µM on Sigma σ1 was 62%; in data set [1] it was 18%; at Adrenergic α1A, 4%; at Estrogen Erα, 6%; at Calcium Channel N-Type, -1%; in [3], 71%. Further, the inhibition at 10 µM was 72% on hERG potassium channel; 12% at GABAB1A; -2% in [5]; 11% on Histamine H3; 1% on Interleukin IL-1 R1; 22% at Opiate μ (OP3, MOP). Moreover, the inhibition at 10 µM (on Adrenergic β2; in [6]) was 5% in each case. Further, the “inhibition of human sperm hyperactivated motility, incubation” value in [3] came to 61%. The “inhibition of human sperm hyperactivated motility, acute” value in data set [3] was greater than 70%. Moreover, in data set [3], the “effect on progressive motility of human sperm” value was “without changing”. For the same molecule, the “effect on total motility of human sperm” value in data set [3] is recorded as “without changing”. Further, the “% of Parent Related Material, Human” value in [4] was 91.66% and > 82%.

For the origin of these results see publication PMC12441834, “Highly Potent and Subtype-Selective Sperm-Specific Potassium Channel SLO3 Inhibitors Display High Tissue Exposure in the Murine Female Reproductive Tract” (ACS Pharmacology & Translational Science, 2025).
